Laboratory results taken from US11667602B2, “Compounds and their use” (AstraZeneca AB, priority 2020, dated 2023).
In brackets after ≈: the same amount, converted by molar mass.

Tests used:
[1] = Rat Hepatocyte Stability (Test E); format: in vitro ADME; conditions: rat, hepatocytes, geometric mean if run multiple times
Procedure, shortened: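 Intrinsic clearance in rat hepatocytes, expressed as μl/min/10^6 cells, following the literature integrated DMPK panel method. Repeat determinations combined as geometric mean.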

[2] = Human Liver Microsomal Stability (Test C); format: in vitro ADME; conditions: human, liver microsomes
Procedure, shortened: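 CLint (μl/min/mg protein) derived from compound depletion in human liver microsomes following a published standardized early-DMPK protocol; replicate determinations given as arithmetic mean.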

[3] = Human Hepatocyte Stability (Test D); format: in vitro ADME; conditions: human, cryopreserved pooled human hepatocytes (LiverPool 10-Donor), geometric mean if run multiple times
Protocol: Human Hepatocyte Stability (Test D)
The metabolic stability of compounds in human hepatocytes was assessed using the following protocol:
1. Prepare 10 mM stock solutions of compound and control compounds in appropriate solvent (DMSO). Place incubation medium (L-15 Medium) in a 37° C. water bath, and allow warming for at least 15 minutes prior to use.
2. Add 80 μL of acetonitrile to each well of the 96-well deep well plate (“Quenching plate”).
3. In a new 96-well plate, dilute the 10 mM test compounds and the control compounds to 100 μM by combining 198 μL of acetonitrile and 2 μL of 10 mM stock solution.
4. Remove a vial of cryopreserved (less than −150° C.) human hepatocytes (LiverPool™ 10-Donor Human hepatocytes obtained from Bioreclamation IVT (Product No. S01205)) from storage, ensuring that vials remain at cryogenic temperatures until thawing process ensues. As quickly as possible, thaw the cells by placing the vial in a 37° C. water bath and gently shaking the vials. Vials should remain in water bath until all ice crystals have dissolved and are no longer visible. After thawing is complete, spray vial with 70% ethanol, transfer the vial to a bio-safety cabinet.
5. Open the vial and pour the contents into the 50 mL conical tube containing thawing medium. Place the 50 mL conical tube into a centrifuge and spin at 100 g for 10 minutes (room temperature).
6. Using Cellometer® Vision, count cells and determine the viable cell density. Cells with poor viability (<80% viability) are not acceptable for use.
7. Transfer 247.5 μL of hepatocytes into each well of a 96-well cell incubation plate. Place the plate on Eppendorf Thermomixer Comfort plate shaker to allow the hepatocytes to warm for 10 minutes.
8. Add 2.5 μL of 100 μM test compound or control compounds into an incubation well containing cells to initiate the reaction.
9. Incubate the plate at 37° C. and 900 rpm on an Eppendorf Thermomixer Comfort plate shaker.
10. Centrifuge the quenching plates for 20 minutes at 4,000 rpm. Transfer 30 μL of supernatant of each compound into a 96-well analysis plate. 4 compounds are pooled together into one cassette. Then dilute the pooled sample by adding of 180 μl of pure water. All incubations are performed in singlicate.
All calculations were carried out using Microsoft Excel. Peak areas were determined from extracted ion chromatograms. In vitro intrinsic clearance (in vitro Clint, in μL/min/10^6 cells) of parent compound was determined by regression analysis of the Ln percent parent disappearance vs. time curve. The in vitro intrinsic clearance (in vitro Clint, in μL/min/10^6 cells) reported in Table 36, and was determined from the slope value using the following equation: in vitro Clint=kV/N
V=incubation volume (0.25 mL);
N=number of hepatocytes per well (0.25×10^6 cells)
Where the assay was run multiple times for the same compound, the geometric mean is reported.

human RXFP1 = molecular target: T1, human RXFP1 (Homo sapiens, UniProt Q9HBX9); assay: RXFP1 Hu cAMP (Test A); format: cell-based; parameters: expressed in transfected cells; host or cells: Jump-In T-REx CHO-K1 cells (ThermoFisher), induced with 10 ng/ml doxycycline for 24 h; conditions: RXFP1 Hu cAMP; for EC50: read-out: Test A EC50
T1 sequence (Q9HBX9 1-757): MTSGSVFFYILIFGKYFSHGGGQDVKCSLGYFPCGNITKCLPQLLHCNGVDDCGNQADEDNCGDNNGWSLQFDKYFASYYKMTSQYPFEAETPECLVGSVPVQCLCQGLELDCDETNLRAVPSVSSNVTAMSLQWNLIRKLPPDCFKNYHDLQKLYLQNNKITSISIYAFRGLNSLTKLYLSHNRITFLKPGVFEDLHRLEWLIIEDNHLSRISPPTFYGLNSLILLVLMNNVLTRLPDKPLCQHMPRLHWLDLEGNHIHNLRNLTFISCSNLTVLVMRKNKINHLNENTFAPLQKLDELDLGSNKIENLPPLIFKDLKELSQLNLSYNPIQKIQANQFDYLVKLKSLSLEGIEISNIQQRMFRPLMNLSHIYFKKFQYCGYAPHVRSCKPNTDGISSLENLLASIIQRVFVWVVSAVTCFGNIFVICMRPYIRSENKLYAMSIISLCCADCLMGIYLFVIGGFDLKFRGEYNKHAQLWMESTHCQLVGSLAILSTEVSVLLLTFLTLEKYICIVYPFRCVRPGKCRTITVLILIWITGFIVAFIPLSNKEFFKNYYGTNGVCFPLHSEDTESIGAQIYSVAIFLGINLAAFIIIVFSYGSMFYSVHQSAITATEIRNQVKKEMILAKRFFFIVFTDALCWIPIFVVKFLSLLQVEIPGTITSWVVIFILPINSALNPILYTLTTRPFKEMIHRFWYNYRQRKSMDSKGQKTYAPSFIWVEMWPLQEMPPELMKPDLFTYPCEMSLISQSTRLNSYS
Procedure, shortened: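 CHO-K1 (Jump-In T-REx), RXFP1 induced w/ 10 ng/ml doxycycline 24 h, cryopreserved. 0.5 mM IBMX final. cAMP by HTRF, 2 h RT, std curve.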

Solubility (Test F) = format: physicochemical; conditions: arithmetic mean if run multiple times
Protocol: The assay was conducted according to the Solubility Assay described in pages 164-167 of Wernevik, J. et al., “A Fully Integrated Assay Panel for Early Drug Metabolism and Pharmacokinetics Profiling”, Assay and Drug Development Technologies, 2020, 18(4), 157-179. Data are reported in Table 36 as solubility ([…]. Where the assay was run multiple times for the same compound, the arithmetic mean is reported.

[4] = Human Plasma Protein Binding (Test B); format: in vitro ADME; conditions: fraction unbound (fu)
Procedure, shortened: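 Values given as % free (fu) in human plasma, using the method of Wernevik et al. (2020). For compounds tested more than once, the arithmetic mean is given.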

hepatocyte CLint [1] [µL/min/1e6 cells] | microsomal CLint [2] [µL/min/mg] | hepatocyte CLint at 1 µM [3] [µL/min/1e6 cells] | Test A Sinf (human RXFP1) [%] | EC50 (human RXFP1) [nM] | solubility (Solubility (Test F)) [µM] | Test B Human Plasma Protein Binding (% free) [4] [% free] | Compound
9.7 | 5.5 | 3.1 | 99 | 160 | > 1000 | – | COc1cc(F)c(O[C@H]2CC[C@@](C)(C(=O)O)CC2)cc1C(=O)N[C@@H]1CCC[C@@H]1C(=O)N[C@H](C)C(C)(C)C [Example 65, (1S,4s)-4-(5-(((1R,2S)-2-(((R)-3,3-Dimethylbutan-2-yl)carbamoyl)cyclopentyl)carbamoyl)-2-fluoro-4-methoxyphenoxy)-1-methylcyclohexane-1-carboxylic acid]
15 | 32 | 3.7 | 100 | 590 | 55 (≈ 29.3 µg/mL) | – | COc1cc(F)c(O[C@H]2CC[C@@H](C(=O)O)CC2)cc1C(=O)N[C@@H]1[C@H]2CC[C@H](C2)[C@@H]1C(=O)N[C@H](C)C(C)(C)C [Example 200]
14 | 42 | 49 | 99 | > 150 | 35 (≈ 23.9 µg/mL) | – | COc1cc(F)c(O[C@H]2CC[C@@](C)(C(=O)O)CC2)cc1C(=O)N[C@H]1[C@@H]2CC[C@@H](C2)[C@H]1C(=O)Nc1ccc(F)c(S(F)(F)(F)(F)F)c1 [Example 206, (1R,4s)-4-(2-Fluoro-5-(((1R,2S,3R,4S)-3-((4-fluoro-3-(pentafluoro-λ6-sulfaneyl)phenyl)carbamoyl)bicyclo[2.2.1]heptan-2-yl)carbamoyl)-4-methoxyphenoxy)-1-methylcyclohexane-1-carboxylic acid]
18 | < 3 | 2.6 | 105 | 270 | > 1000 | – | COc1cc(F)c(O[C@H]2CC[C@@](C)(C(=O)O)CC2)cc1C(=O)N[C@@H]1CCC[C@@H]1C(=O)NCC1(C)CCC1 [Example 67]
57 | 14 | 5.6 | 102 | – | 890 (≈ 462 µg/mL) | – | CCC(C)CNC(=O)C1C2CCC(C2)C1NC(=O)c1cc(OC2CCC(C(=O)O)CC2)c(F)cc1OC (single isomer, unassigned) [Example 202, (1S,4s)-4-(2-Fluoro-4-methoxy-5-(((1S,2R,3S,4R)-3-(((R*)-2-methylbutyl)carbamoyl)bicyclo[2.2.1]heptan-2-yl)carbamoyl)phenoxy)cyclohexane-1-carboxylic acid]
27 | 42 | 13 | 102 | 140 | 890 (≈ 592 µg/mL) | – | COc1cc(F)c(-c2cnc(CCC(=O)O)cn2)cc1C(=O)N[C@@H]1[C@H]2CC[C@H](C2)[C@@H]1C(=O)Nc1cccc(S(=O)(=O)C(F)(F)F)c1 [Example 238]
77 | 12 | 6.6 | 99 | 1200 | 920 (≈ 475 µg/mL) | – | COc1cc(F)c(O[C@H]2CC[C@@H](C(=O)O)CC2)cc1C(=O)N[C@@H]1[C@H]2CC[C@H](C2)[C@@H]1C(=O)NCC1(C)CC1 [Example 198]
57 | 97 | – | 111 | 31 | 250 (≈ 151 µg/mL) | 2.7 | COc1cc(C#N)c(O[C@H]2CC[C@@](C)(C(=O)O)CC2)cc1C(=O)N[C@@H]1[C@H]2CC[C@H](C2)[C@@H]1C(=O)NC12CC3C[C@H](C1)C[C@H](C3)C2 [Example 81]
130 | 28 | – | 131 | 830 | 860 (≈ 508 µg/mL) | 1.6 | COc1cc(F)c(O[C@H]2CC[C@@H](C(=O)O)CC2)cc1C(=O)N[C@@H]1[C@H]2CC[C@H](C2)[C@@H]1C(=O)Nc1cccc(OC(F)F)c1 [Example 195]
45 | 29 | – | 97 | 1000 | 590 (≈ 358 µg/mL) | 1.8 | COc1cc(F)c(O[C@H]2CC[C@@H](C(=O)O)CC2)cc1C(=O)N[C@@H]1[C@H]2CC[C@H](C2)[C@@H]1C(=O)Nc1cccc(C(F)(F)F)c1C [Example 24]
19 | 6.3 | – | 92 | 190 | 870 (≈ 550 µg/mL) | 0.16 | COc1cc(F)c(-c2ccc(C(=O)O)cc2)cc1C(=O)N[C@H]1[C@@H](C(=O)Nc2cccc(S(=O)(=O)C(F)(F)F)c2)[C@@H]2C=C[C@H]1C2 (racemic) [Example 224, rac-2′-Fluoro-4′-methoxy-5′-(((1R,2R,3S,4S)-3-((3-((trifluoromethyl)sulfonyl)phenyl)carbamoyl)bicyclo[2.2.1]hept-5-en-2-yl)carbamoyl)-[1,1′-biphenyl]-4-carboxylic acid]
13 | 16 | – | 108 | 490 | 2.8 (≈ 1.57 µg/mL) | 1.1 | COc1cc(F)c(O[C@H]2CC[C@@](C)(C(=O)O)CC2)cc1C(=O)Nc1cccc(Cl)c1C(=O)NCC1(C)CCC1 [Example 54, (1s,4s)-4-(5-((3-Chloro-2-(((1-methylcyclobutyl)methyl)carbamoyl)phenyl)carbamoyl)-2-fluoro-4-methoxyphenoxy)-1-methylcyclohexane-1-carboxylic acid]
93 | 17 | – | 97 | 470 | 630 (≈ 355 µg/mL) | 2.3 | COc1cc(F)c(O[C@H]2CC[C@@H](C(=O)O)CC2)cc1C(=O)N[C@@H]1[C@H]2CC[C@H](C2)[C@@H]1C(=O)Nc1ccc(C)c(C#N)c1 [Example 19]
